Assay results taken from patent publication US9242009B2, “Compositions and methods to treat neurodegenerative diseases” (The General Hospital Corporation, priority 2012, dated 2016).
“Also recorded” adds a separate entry of the source. Read-outs that look alike come from different tables or passages of the source.

Assays:
SH-SY5Y cells [1] = test: MPP+-induced cytotoxicity in SH-SY5Y cells (CV, MTT assay); assay type: cell-based, Human; conditions: 24 h
Protocol: The abilities of ACS48-amantadine, CTBA-memantine, S-memantine, and ACS81-memantine to improve viabilities of SH-SY5Y cells incubated with MPP^+, which has been used for an in-vitro Parkinson's disease model (Robert et al. (2012) Cell Death and Differentiation, 19, 1769-1778), were examined. SH-SY5Y cells (96 well plate, 2×10^5 cells/well) were incubated with MPP^+ (Sigma-Aldrich) at 5 mM in DMEM/F12 at 37° C. for 24 h. ACS48-amantadine, CTBA-memantine, S-memantine, or ACS81-memantine was dissolved in DMSO and added at 5 or 20 μM to the medium 30 min after the addition of MPP^+. The final concentration of DMSO in the medium was adjusted to 0.5% (v/v). Cell viabilities of SH-SY5Y 24 h after the addition of MPP^+ were measured by CV assay or MTT assay.

[2] = test system: phosphorylated tau protein at serine 202 and threonine 205; test: LPS-induced tau phosphorylation in mice hippocampus (immunoblot); assay type: in vivo
[3] = test system: murine primary cortical neurons; test: Amyloid beta-induced toxicity in murine primary cortical neurons (LDH release, MTT); assay type: cell-based, mice; conditions: 24 hours incubation with Aβ1-42 at 20 μM; for Cell viabilities after Aβ1-42: compound 5, 10 or 30 μM
Protocol: FIG. 13A-B is a set of two bar graphs depicting cell viability of murine primary cortical neurons exposed to 20 μM amyloid beta (Aβ) and treated with memantine, ACS48, or S-memantine at 5, 10, or 30 μM. Cell viability was estimated by LDH release assay in the left graph and MTT assay in the right graph.

[4] = test system: phosphorylated Akt at threonine 308; test: Immunoblot of phosphorylated Akt in SH-SY5Y after OGD; assay type: cell-based, Human; conditions: 50 μM added 8 hours after end of OGD
SH-SY5Y [5] = test: Amyloid beta-induced toxicity in SH-SY5Y (LDH release, MTT); assay type: cell-based, Human; conditions: 24 hours incubation with Aβ1-42 at 20 μM; for Cell viabilities after Aβ1-42: compound 20 or 50 μM
Protocol: FIG. 12A-B is a set of two bar graphs showing cell viability of SH-SY5Y cells exposed to 20 μM amyloid beta (Aβ) and treated with memantine, ACS48, or S-memantine at 20 or 50 μM. Cell viability was estimated by LDH release assay in the left graph and MTT assay in the right graph.

[6] = test system: murine primary cortical neurons; test: Intracellular calcium level [Ca2+]i (Fura-2/AM) with or without glutamate; assay type: cell-based, mice
SH-SY5Y cells [7] = test: Intracellular sulfide levels in SH-SY5Y cells (HPLC); assay type: cell-based, Human
Protocol: Human neuroblastoma SH-SY5Y cells were cultured in Eagle's medium/Ham's F-12 50/50 Mix (DMEM/F12, Cellgro by Mediatech, Inc.) supplemented with 10% fetal bovine serum (FBS) and 1% penicillin/streptomycin. The cells were seeded into 96 well plates (2×10^4 cells per well) for OGD and measurements of toxicity, 6 cm dishes (5×10^5 cells per dish) for measurements of sulfide and reduced-glutathione (GSH), or 10 cm dishes (1×10^6 cells per dish) for measurements of intracellular calcium. Cell culture medium was replaced every 2 days, and the cultures were maintained at 37° C. in 95% air/5% CO2 in a humidified incubator. Cells were used after reaching 80% confluent.
Concentration of free sulfide in SH-SY5Y cells was measured using high performance liquid chromatography (HPLC) (Tokuda et al. (2012) Antioxidants & Redox Signaling). Briefly, SH-SY5Y cells were seeded into 6 cm dishes (5×10^5 cells per dish). After being 80% confluent, 20 μM H2S donor was added to the dish and incubated at 37° C. Cells were washed with ice-cold Tris-HCl (100 mM, PH 9.5, DTPA 0.1 mM) buffer, scraped, transferred to microfuge tubes, and centrifuged. MBB (10 mM in acetonitrile, 50 μl) was added to 100 μl of supernatant. After 30 minutes of incubation at room temperature in dark, 50 μl of 200 mM 5-sulfosalicylic acid (SSA) was added. After centrifugation, supernatant was analyzed by HPLC. For sulfide levels in medium, after centrifugation, supernatant was used for MBB reaction as above.
In contrast, incubation of SH-SY5Y cells with S-memantine increased intracellular sulfide level more markedly than incubation with ACS48 at all time points after addition (˜10 fold at 4 hours, P<0.001 by two-way ANOVA with Bonferroni post-test). In a separate experiment, we examined whether or not incubation with memantine itself or incubation with ACS48 and memantine would affect intracellular sulfide levels in SH-SY5Y cells.

[8] = test system: murine primary cortical neurons; test: Cytotoxicity of H2S donors to murine primary cortical neurons (LDH release); assay type: cell-based, mice; conditions: 24 hours
Protocol: (§1) A microtiter plate containing cells was centrifuged at 250×g for 10 minutes and the supernatant was used for LDH measurement with LDH Cytotoxicity Detection Kit (Roche). After aspirating the medium, remaining cells were washed with PBS, then, 100 μl of 1% Triton-X was added to each well, followed by incubation at 37° C. for 30 minutes. Medium and lysates were used for LDH measurement at wavelength 492 nm. Percentage of released LDH was calculated with following formula: {LDH (medium)/LDH (medium+cell)×100}. Average value of control (cells without OGD) was deducted as background.

mice challenged with LPS = test: LPS-induced cognitive impairment, Morris water-maze
SH-SY5Y [9] = test: Intracellular GSH levels in SH-SY5Y (HPLC); assay type: cell-based, Human
Protocol: Intracellular GSH level of SH-SY5Y was measured using HPLC method as previously reported (Kimura et al. (2009) Antioxidants & Redox Signaling 12, 1-13). Briefly, cells were seeded into 6 cm dishes (5×10^5 cells per dish) and treated with 50 μM H2S donors or memantine with or without 2 mM glutamate for 8 hours, followed by washing with ice-cold PBS. Cells were scraped and transferred to a microfuge tube and sonicated. Some fraction of lysate was used for protein assay. After centrifugation, 75 μl of supernatant, 26 μl of 2-(cyclohexylamino) ethanesulfonic acid (CHES, 0.5 M, PH 8.4), and 4 μl of 50 μM MBB were mixed and incubated at room temperature in dark for 30 minutes. Acetic acid (100 μl, 30% v/v) was added, followed by centrifugation at 15,000×g for 10 min after 5 min incubation of the tube on ice. The supernatant was analyzed using HPLC at wavelength of λex=370 nm and λem=486 nm.

SH-SY5Y cells [10] = test: Oxygen-glucose deprivation (OGD) of SH-SY5Y cells, viability by LDH release, MTT and CV assays; assay type: cell-based, Human
Protocol: OGD for SH-SY5Y was performed by placing cells in a hypoxia chamber ([…] Technologies Inc.) for 15 hours, followed by 24 hours of reoxygenation as previously reported (FIG. 3A) (Serra-Pérez et al. (2008) Journal of Neurochemistry 106, 1237-1247). Briefly, medium was replaced with glucose-free RPMI 1640 with L-glutamine (Cellgro by Mediatech, Inc), deoxygenated with anaerobic gas mixture (93% N2-5% CO2-2% H2) for 30 minutes before use. Cells were then placed in a hypoxia chamber, flushed with anaerobic gas mixture (93% N2-5% CO2-2% H2) and incubated at 37° C. After 15 hours of hypoxia, medium was replaced with DMEM/F12 and incubated for 24 hours at 37° C. in 95% air/5% CO2 in a humidified incubator.
as §1
Ten μl of thiazolyl blue tetrazolium bromide solution (5 mg/ml in PH 7.4 PBS) was added to each well containing 100 μl of medium and cells, followed by incubation at 37° C. for 4 hours in the dark. Isopropanol (100 μl, 0.04 N HCl) was added to dissolve blue dye. After dissolved completely, absorbance was measured with plate-reader (Synergy 2, BioTek Instrument) at test wavelength 570 nm and reference wavelength 670 nm. Cell viability was determined by absorbance at 570 nm and reported as ratio to control cells (without OGD).
After aspirating culture medium, cells were fixed and stained by 0.5% CV in 95% (v/v) ethanol for 5 minutes, then washed by tap water several times. After taking photographs, 1% sodium dodecylsulfate solution was added to each well to elute blue dye. Absorbance was measured with plate-reader at 595 nm of wavelength. Values were shown as ratio to control (cells without OGD).

[11] = Plasma and cerebral sulfide levels of mice after intraperitoneal administration; assay type: in vivo; conditions: 25 μmol/kg intraperitoneal, 90 minutes after administration
Description: Blood was drawn from left ventricle and centrifuged to collect the plasma. After perfusion with Tris-HCl buffer via left ventricle, brain was harvested, homogenized in Tris-HCl, and centrifuged. Plasma and supernatant of brain homogenate were derivatized with MBB and analyzed by HPLC.

[12] = 20 μM added 30 min after 5 mM MPP+
[13] = time- and dose-range studies, SH-SY5Y

In the case of `O=C(NC12CC3CC(CC(C3)C1)C2)c1ccc(-c2cssc2=S)cc1` [ACS48-amantadine], the “Cell viabilities of SH-SY5Y cells after MPP+” value (shortened to “Cell viabilities … after MPP+”) (SH-SY5Y cells [1]; 5 μM added 30 min after 5 mM MPP+) is reported as “improved cell viabilities” and the “Cell viabilities … after MPP+” value (SH-SY5Y cells [1]; [12]) is reported as “improved cell viabilities”.
For `CC12CC3CC(C)(C1)CC(N)(C3)C2` [memantine], the “Aβ1-42 accumulation in mice cortex, or hippocampus” value (Aβ1-42; 45 μmol/kg pretreatment, LPS challenge for 7 days) was “prevented Aβ1-42 accumulation”, the “LPS-induced tau phosphorylation at serine 202 and threonine 205 in mice hippocampus” value ([2]; 45 μmol/kg pretreatment) was “prevented LPS-induced tau phosphorylation” and the “Cell viabilities after Aβ1-42” value [3] was “improved cell viabilities”. The “Akt phosphorylation after OGD” value [4] was “did not affect Akt phosphorylation”, the “Cell viabilities after Aβ1-42” value (SH-SY5Y [5]) was “improved cell viabilities” and the Glutamate-induced calcium accumulation ([6]; 20 μM, 100 μM glutamate) was “suppressed calcium accumulation”. The “Effect of memantine on intracellular sulfide levels” value (SH-SY5Y cells [7]; 20 μM memantine, cells incubated with or without ACS48 20 μM) was “did not affect intracellular sulfide levels”, the “LDH release caused by Na2S or ACS48 on co-incubation with memantine” value ([8]; 50 μM Na2S or ACS48 plus 50 μM memantine) was “abolished” and the “Swimming speed in Morris water-maze test” value (mice challenged with LPS; 45 μmol/kg i.p.) was “did not change it”. For the same molecule, the “Swimming speed in Morris water-maze test” value (mice challenged with LPS; 90 μmol/kg i.p.) was “slowed swimming speed” and the “GSH levels, memantine per se” value (SH-SY5Y [9]; 50 μM, 8 hours) was “did not affect GSH levels”.
With Sodium sulfide [Na2S] the “Aβ1-42 accumulation in mice cortex, or hippocampus” value (Aβ1-42; mouse, in vivo) was “prevented Aβ1-42 accumulation”, the “Prevention of Aβ1-42 accumulation compared with memantine” value (Aβ1-42; mouse, in vivo) was “prevented Aβ1-42 accumulation more markedly than did memantine” and the “LPS-induced tau phosphorylation at serine 202 and threonine 205 in mice hippocampus” value ([2]; mouse, in vivo) was “prevented LPS-induced tau phosphorylation”. The “Cell viability after OGD (LDH release)” value (SH-SY5Y cells [10]) was “did not improve cell viability; also recorded: failed to improve cell viability; also recorded: No significant difference”, the Glutamate-induced calcium accumulation [6] was “augmented glutamate-induced calcium accumulation” and the “Increase of intracellular calcium [Ca2+]i” value [6] was “increased”. For the same molecule, the Intracellular sulfide levels (SH-SY5Y cells [7]) was “increased intracellular sulfide levels”, the “Time of peak intracellular sulfide levels after addition” value (SH-SY5Y cells [7]) was “around 1.5 hours” and the “Latency until getting platform in Morris water-maze test” value (mice challenged with LPS; mouse, in vivo) was “improved latency”. The “Intracellular GSH levels” value (SH-SY5Y [9]) was “increased intracellular GSH levels; also recorded: restored intracellular GSH levels”.
For `CC12CC3CC(C)(C1)CC(NC(=O)c1ccc(C(N)=S)cc1)(C3)C2` [CTBA-memantine], the “Cell viabilities … after MPP+” value (SH-SY5Y cells [1]; [12]) was “improved cell viabilities”.
For `O=C(O)c1ccc(-c2cssc2=S)cc1` [ACS48, 4-(3-thioxo-3H-1,2-dithiol-4-yl)-benzoic acid], the “Cell viabilities after Aβ1-42 compared with memantine” value [3] was “improved cell viabilities more markedly than did memantine”, the “Cell viabilities after Aβ1-42” value [3] was “improved cell viabilities” and the “Most effective dose to improve viability after OGD” value (SH-SY5Y cells [10]; [13]) was 50 µM. For the same molecule, the “Most effective time point of addition after the end of OGD” value (SH-SY5Y cells [10]; [13]) was 8 h, the “Cell viabilities after Aβ1-42 compared with memantine” value (SH-SY5Y [5]) was “improved cell viabilities more markedly than did memantine” and the “Cell viabilities after Aβ1-42” value (SH-SY5Y [5]) was “improved cell viabilities”. For the same molecule, the Plasma sulfide levels [11] was “increased plasma sulfide levels”, the Glutamate-induced calcium accumulation ([6]; 20 μM, 100 μM glutamate) was “augmented glutamate-induced calcium accumulation” and the “Increase of intracellular calcium [Ca2+]i” value ([6]; 20 μM, without glutamate) was “increased”. The “Time of peak intracellular sulfide levels after addition” value (SH-SY5Y cells [7]; 20 μM, SH-SY5Y) was “around 1.5 hours”, the Intracellular sulfide levels (SH-SY5Y cells [7]; 20 μM, SH-SY5Y, 37° C.) was “increased intracellular sulfide levels” and the “LDH release (cytotoxicity)” value ([8]; 50 μM, without memantine) was “markedly increased LDH release”. For the same molecule, the “Intracellular GSH levels” value (SH-SY5Y [9]; 50 μM, 8 hours, with 2 mM glutamate) was “restored intracellular GSH levels” and the “Intracellular GSH levels” value (SH-SY5Y [9]; 50 μM, 8 hours, without glutamate) was “increased intracellular GSH levels”.
